In the NIST ThermoML archive (doi:10.1016/j.jct.2016.03.021):

Test: wn = mass fraction of the nth substance listed
Settings: Liquid; for mass density: Vibrating tube method

NCCO [2-aminoethan-1-ol] + O
mass density [kg/m3]
Settings | w1 = 0.1001 | w1 = 0.2 | w1 = 0.3005 | w1 = 0.4
333.15 K, 30000 kPa | – | – | 1003.5 | 1006.7
333.15 K, 40000 kPa | 1002.7 | 1004.5 | 1007.3 | 1010.4
333.15 K, 50000 kPa | 1006.5 | 1008 | 1010.8 | 1013.8
333.15 K, 60000 kPa | 1010.4 | 1011.7 | 1014.4 | 1017.3
333.15 K, 70000 kPa | 1014.1 | 1015.2 | 1017.8 | 1020.7
333.15 K, 80000 kPa | 1017.7 | 1018.7 | 1021.1 | 1024
333.15 K, 90000 kPa | 1021.3 | 1022.1 | 1024.4 | 1027.1
333.15 K, 100000 kPa | 1024.8 | 1025.5 | 1027.7 | 1030.3
333.15 K, 110000 kPa | 1028.1 | 1028.8 | 1031 | 1033.5
333.15 K, 120000 kPa | 1031.7 | 1032.2 | 1034.2 | 1036.7
353.15 K, 100 kPa | 974.7 | 976.7 | 979.2 | 981.9
353.15 K, 500 kPa | 974.7 | 976.7 | 979.4 | 982
353.15 K, 1000 kPa | 975 | 976.9 | 979.6 | 982.2
353.15 K, 2000 kPa | 975.4 | 977.4 | 980 | 982.6
353.15 K, 5000 kPa | 976.7 | 978.6 | 981.2 | 983.9
353.15 K, 10000 kPa | 978.9 | 980.8 | 983.3 | 986
353.15 K, 15000 kPa | 981.1 | 982.9 | 985.4 | 988
353.15 K, 20000 kPa | 983.2 | 984.9 | 987.4 | 990
353.15 K, 30000 kPa | 987.4 | 988.9 | 991.4 | 993.9
353.15 K, 40000 kPa | 991.4 | 992.9 | 995.2 | 997.7
353.15 K, 50000 kPa | 995.4 | 996.7 | 999 | 1001.4
353.15 K, 60000 kPa | 999.4 | 1000.6 | 1002.7 | 1005.1
353.15 K, 70000 kPa | 1003.1 | 1004.2 | 1006.2 | 1008.6
353.15 K, 80000 kPa | 1006.9 | 1007.7 | 1009.8 | 1012.1
353.15 K, 90000 kPa | 1010.5 | 1011.3 | 1013.1 | 1015.3
353.15 K, 100000 kPa | 1014.1 | 1014.7 | 1016.6 | 1018.7
353.15 K, 110000 kPa | 1017.7 | 1018.2 | 1020 | 1022.1
353.15 K, 120000 kPa | 1021.2 | 1021.6 | 1023.3 | 1025.2
373.15 K, 100 kPa | 960.8 | 962.5 | 964.5 | 966.6
373.15 K, 500 kPa | 961 | 962.7 | 964.8 | 966.9
373.15 K, 1000 kPa | 961.3 | 962.9 | 965 | 967.1
373.15 K, 2000 kPa | 961.8 | 963.4 | 965.5 | 967.6
373.15 K, 5000 kPa | 963.1 | 964.7 | 966.8 | 968.9
373.15 K, 10000 kPa | 965.5 | 966.9 | 969 | 971.1
373.15 K, 15000 kPa | 967.7 | 969.1 | 971.2 | 973.3
373.15 K, 20000 kPa | 969.9 | 971.3 | 973.4 | 975.4
373.15 K, 30000 kPa | 974.4 | 975.6 | 977.6 | 979.7
373.15 K, 40000 kPa | 978.7 | 979.8 | 981.7 | 983.8
373.15 K, 50000 kPa | 982.8 | 983.7 | 985.6 | 987.6
373.15 K, 60000 kPa | 986.8 | 987.7 | 989.5 | 991.6
373.15 K, 70000 kPa | 990.8 | 991.5 | 993.3 | 995.2
373.15 K, 80000 kPa | 994.8 | 995.4 | 997.1 | 999.1
373.15 K, 90000 kPa | 998.5 | 999 | 1000.8 | 1002.5
373.15 K, 100000 kPa | 1002.2 | 1002.5 | 1004.2 | 1006
373.15 K, 110000 kPa | 1005.9 | 1006.1 | 1007.7 | 1009.5
373.15 K, 120000 kPa | 1009.6 | 1009.6 | 1011.1 | 1012.9
393.15 K, 100 kPa | 945.2 | 946.5 | 948.4 | 950
393.15 K, 500 kPa | 945.6 | 946.9 | 948.8 | 950.4
393.15 K, 1000 kPa | 945.8 | 947 | 948.9 | 950.6
393.15 K, 2000 kPa | 946.3 | 947.5 | 949.4 | 951.1
393.15 K, 5000 kPa | 947.8 | 949 | 950.9 | 952.5
393.15 K, 10000 kPa | 950.3 | 951.5 | 953.3 | 955
393.15 K, 15000 kPa | 952.7 | 953.8 | 955.7 | 957.3
393.15 K, 20000 kPa | 955.2 | 956.2 | 958.1 | 959.7
393.15 K, 30000 kPa | 959.8 | 960.7 | 962.6 | 964.3
393.15 K, 40000 kPa | 964.4 | 965.2 | 967 | 968.7
393.15 K, 50000 kPa | 968.7 | 969.4 | 971.1 | 972.8
393.15 K, 60000 kPa | 973 | 973.6 | 975.3 | 977
393.15 K, 70000 kPa | 977.3 | 977.8 | 979.5 | 981.1
393.15 K, 80000 kPa | 981.3 | 981.6 | 983.2 | 985
393.15 K, 90000 kPa | 985.2 | 985.6 | 987.1 | 988.8
393.15 K, 100000 kPa | 989.1 | 989.4 | 990.9 | 992.5
393.15 K, 110000 kPa | 993 | 993 | 994.6 | 996.2
393.15 K, 120000 kPa | 996.7 | 996.7 | 998.2 | 999.7

viscosity [mPa·s]
Settings | 333.15 K | 353.15 K
93 kPa, Concentric cylinders viscometry, w1 = 0.3 | – | 0.764
93 kPa, Concentric cylinders viscometry, w1 = 0.4 | – | 0.9518
100 kPa, Falling or rolling sphere viscometry, w1 = 0.3005 | – | 0.746
100 kPa, Falling or rolling sphere viscometry, w1 = 0.4001 | – | 0.942
101 kPa, Falling or rolling sphere viscometry, w1 = 0.3 | – | 0.746
101 kPa, Falling or rolling sphere viscometry, w1 = 0.4 | – | 0.942
5000 kPa, Falling or rolling sphere viscometry, w1 = 0.3005 | – | 0.748
5000 kPa, Falling or rolling sphere viscometry, w1 = 0.4001 | – | 0.944
10000 kPa, Falling or rolling sphere viscometry, w1 = 0.3005 | – | 0.755
10000 kPa, Falling or rolling sphere viscometry, w1 = 0.4001 | – | 0.957
20000 kPa, Falling or rolling sphere viscometry, w1 = 0.3005 | – | 0.768
20000 kPa, Falling or rolling sphere viscometry, w1 = 0.4001 | – | 0.975
30000 kPa, Falling or rolling sphere viscometry, w1 = 0.3005 | – | 0.777
30000 kPa, Falling or rolling sphere viscometry, w1 = 0.4001 | – | 0.989
40000 kPa, Falling or rolling sphere viscometry, w1 = 0.1001 | 0.63 | –
40000 kPa, Falling or rolling sphere viscometry, w1 = 0.2 | 0.815 | –
40000 kPa, Falling or rolling sphere viscometry, w1 = 0.3005 | 1.115 | 0.787
40000 kPa, Falling or rolling sphere viscometry, w1 = 0.4001 | 1.475 | 1.006
60000 kPa, Falling or rolling sphere viscometry, w1 = 0.1001 | 0.639 | –
60000 kPa, Falling or rolling sphere viscometry, w1 = 0.2 | 0.829 | 0.607
60000 kPa, Falling or rolling sphere viscometry, w1 = 0.3005 | 1.14 | 0.807
60000 kPa, Falling or rolling sphere viscometry, w1 = 0.4001 | 1.518 | 1.039
80000 kPa, Falling or rolling sphere viscometry, w1 = 0.1001 | 0.646 | –
80000 kPa, Falling or rolling sphere viscometry, w1 = 0.2 | 0.844 | 0.619
80000 kPa, Falling or rolling sphere viscometry, w1 = 0.3005 | 1.165 | 0.828
80000 kPa, Falling or rolling sphere viscometry, w1 = 0.4001 | 1.559 | 1.068
100000 kPa, Falling or rolling sphere viscometry, w1 = 0.1001 | 0.655 | –
100000 kPa, Falling or rolling sphere viscometry, w1 = 0.2 | 0.859 | 0.632
100000 kPa, Falling or rolling sphere viscometry, w1 = 0.3005 | 1.189 | 0.847
100000 kPa, Falling or rolling sphere viscometry, w1 = 0.4001 | 1.6 | 1.097
120000 kPa, Falling or rolling sphere viscometry, w1 = 0.1001 | 0.663 | –
120000 kPa, Falling or rolling sphere viscometry, w1 = 0.2 | 0.874 | 0.644
120000 kPa, Falling or rolling sphere viscometry, w1 = 0.3005 | 1.211 | 0.861
120000 kPa, Falling or rolling sphere viscometry, w1 = 0.4001 | 1.645 | 1.128
